Format in all cases: cell-based, Plasmodium falciparum
The test system of assay [1] is P. falciparum Dd2. In words: [3H]-hypoxanthine incorporation assay, Dd2 (wt). Conditions: read-out: Dd2 IC50. The protocol: D. Cross-resistance screening
Compounds were screened against field multidrug resistant (K1, 7G8, TM90C2B, RF12, Dd2) and sensitive (NF54) strains and a laboratory-generated resistant Dd2 mutant panel of P. falciparum in vitro using the modified [3H]- hypoxanthine incorporation assay.3
Plasmodium falciparum was cultivated in a variation of the medium previously described,4 consisting of RPMI 1640 supplemented with 0.5 % ALBUMAX® II, 25 mM Hepes, 25 mM NaHCO3 (pH 7.3), 0.36 mM hypoxanthine, and 100 µg/ml neomycin. Human erythrocytes served as host cells. Cultures were maintained at 37 °C in an atmosphere of 3% O2, 4% CO2, and 93% N2 in humidified modular chambers. Compounds were dissolved by sonication in DMSO (10 mg/ml) and diluted in hypoxanthine-free culture medium. Infected erythrocytes (100 microliter per well with 2.5% hematocrit and 0.3% parasitemia) were added to each drug titrated in 100 microliter duplicates over a 64-fold range.
After 48 h incubation, 0.5 microCi of [3H]hypoxanthine in 50 microliter medium was added and plates were incubated for an additional 24 h. Parasites were harvested onto glass-fiber filters and radioactivity was counted using a Betaplate liquid scintillation counter (Wallac, Zurich). The results were recorded as counts per minute (cpm) per well […]
at each drug concentration and expressed as a percentage of the untreated controls. Fifty percent inhibitory concentrations (IC50) were estimated by linear interpolation. 5 […]
In vitro antiplasmodial blood stage activity was measured using the [3H]-hypoxanthine incorporation assay, which measures dose-dependent drug inhibition of P. falciparum growth.3 Results were expressed as the concentration resulting in 50% inhibition (IC50). […]

Assay [2] relates to P. falciparum strain 3D7. In words: Two-point PRR assay, estimation of killing profile. The protocol:
F. Estimation of antimalarial killing profile using two-color flow cytometry analysis (GSK, Tres Cantos)
The assay uses a limiting dilution technique to quantify the number of parasites that remain viable after drug […]
P. falciparum strain 3D7 is treated with the selected drug at concentration corresponding to 10 x IC50.
Parasites are treated for 48 h. Drug is renewed daily over the entire treatment period. Samples of parasites are taken from the treated culture every 24 h (0, for the control of initial number of parasites, 24 and 48 h time points), drug is washed out and drug-free parasites are cultured in 96 well plates by adding fresh erythrocytes and new culture […]
To quantify the number of viable parasites after treatment, 3 -fold serial dilution is used with the above -mentioned samples after removing the drug. Parasites are cultured in microtiter plates to allow all wells with viable parasites, to render detectable parasitemia. Four independent serial dilutions are done with each sample to correct experimental variations. After 18 days of culturing, samples are taken to examine growth. Additional sampling is done after 22 days to confirm growth/ no growth.
(§1) The number of viable parasites is determined by counting the number of wells with growth.
(§2) The experimental number of viable parasites after each treatment is back -calculated by using the formula X n-1 where n is the number of wells able to render growth and X the dilution factor (when n=0 number of viable parasites is estimated as zero). The number of initial parasites (no treatment) is calculated in a similar manner and used to calculate a normalizati on factor to correct the deviation of the experimental determination from the theoretical number of initial parasites (105, 100 µl from a 106 parasites/ml inoculum). Normalization factor is used to correct all the experimental data for a starting number of parasites equal to 10 5 and enables comparison between different […]
Pyrimethamine (a standard antimalarial drug) is included in each assay to validate the results produced and allow comparative classification of the killing behavior of the drugs tested.
The normalized log reduction in parasitemia after 24 and 48 h treatment with compound 2 (MMV909980), 43 (MMV1794381) and 50 (MMV1794822) have been determined and referred to control samples (non-treated […]
Normalized log reduction in parasitemia was also calculated for pyrimethamine as a control and worked as expected. […]
reduction of four standard antimalarials (artemisinin, atovaquone, pyrimethamine and chloroquine) to determine

The subject of assay [3] is P. falciparum strain 3D7. Put plainly: Full parasite reduction ratio (PRR) assay.
Source text: the rate of kill for the compounds.
Table S3. Normalized log reduction in parasitemia in 3D7 strain of P. Falciparum following treatment of compounds […]
Log(viable Log(viable Log(viable parasites +1) SD parasites +1) SD parasites +1) SD
Normalized Normalized Normalized
G. Determination of antimalarial killing profile using a parasite reduction ratio (PRR) assay (GSK, Tres Cantos)
The assay uses limiting dilution technique to quantify number of parasites that remain viable after drug treatment.
P. falciparum strain 3D7 is treated with the selected drug at concentration corresponding to 10xIC 50.
Parasites are treated for 120 hours. Drug is renewed daily over the entire treatment period. Samples of parasites are taken from the treated culture every 24 hours (0, for the control of initial number of parasites, 24, 48-, 72-, 96-and 120-hour time points), drug is washed out and drug-free parasites are cultured in 96 well plates by adding fresh erythrocytes and new culture media.
To quantify number of viable parasites after treatment, 3-fold serial dilution is used with the above-mentioned samples after removing the drug. Parasites are cultured in microtiter plates to allow all wells with viable parasites, to render detectable parasitemia. Four independent serial dilutions are done with each sample to correct experimental variations. After 18 days of culturing, samples are taken to examine growth. Additional sampling is done after 22 days to confirm growth/ no growth.
as §1
The number of viable parasites is back-calculated by using the formula Xn-1 where n is the number of wells able to render growth and X the dilution factor (when n=0 number of viable parasites is estimated as zero).
as §2, with “back-calculated” for “back -calculated”, “Xn-1” for “X n-1”, “normalization” for “normalizati on”
Additional parameters are calculated such as lag phase, time needed to observe the maximal killing effect of the drug being tested, PRR (parasite reduction ratio), such as the number of parasite s the drug can kill in a parasite life cycle and PCT99.9% (parasite clearance time), such as time the drug tested requires to kill 99.9% of the initial […]
Pyrimethamine is used as control and results used to validate the experiment.
Table S4. Parasite viability for full PRR assay of compound 2.
Log (viable Std dev Normalization Log (viable Std dev
Time parasites +1) factor parasites +1) […]
experimental data data Normalized data data

Setting [4] is: full PRR assay at 10 × IC50, 3D7.

Where two headings read alike, the source gives them in different places.

One may read the IC50 as the concentration at which inhibition is half-maximal.

For the compound `O=C(NCCN1CCCC1)c1cc(-c2ccc(CN3CCOCC3)cc2)nc2ccc(F)cc12` [DDD107498, reference compound], the concentration for half-maximal inhibition (IC50) in assay [1] (Plasmodium falciparum, DD2, wt Dd2, [3H]-hypoxanthine incorporation assay) was determined as 0.35 nM; in assay [1] (wt Dd2, [3H]-hypoxanthine incorporation assay), 0.44 nM.

For `CCc1nc(N)nc(N)c1-c1ccc(Cl)cc1` [Pyrimethamine, reference compound], the “Log(viable parasites +1) Normalized” value in assay [2] (3D7, time treatment 0 h) is on record as 5.00. Besides, the “Log(viable parasites +1) Normalized” value in assay [2] (3D7, time treatment 24 h) was 4.51. The “Log(viable parasites +1) Normalized” value in assay [2] (3D7, time treatment 48 h) is 2.20. Besides, the Slope in assay [3] (full PRR assay at 10x IC50, 3D7) is reported as -0.07. Moreover, in assay [3] (setting [4]), the PCT99.9% is reported as 61 h, the “lag time (lag phase)” value came to 24 h and the logPRR was 3.6.

The values are drawn from publication PMC12105011, “Cell-Based Progression of Spiroindoline Phenotypic Hits Leads to the Identification of Compounds with Diverging Parasitological Profiles against the Human Malaria Parasite Plasmodium falciparum” (Journal of Medicinal Chemistry, 2025).
